Drawing on a melting point compilation (Tetko et al.; mined from patent text by program, amines drawn as free bases though some values may be those of a salt), this text covers melting point for 88 compounds.

Turning to `O=C(NC12CC3CC(CC(C3)C1)C2)c1cc(O)c(O)cc1Cl`, the melting point (usually the temperature, or range, at which the solid turns liquid) fell in the range of 225 to 230 °C.
In the case of `Cc1nnc(-c2ccc3occ(-c4ccc(SC(F)(F)F)cc4)c3c2)o1`, the melting point was 170 to 171 °C.
Compound `N#Cc1ccc(-c2ccc(C(=O)CCC(=O)O)cc2)cc1` displayed a melting point of 191 to 193 °C.
The result for `O=C(C(Cl)Cl)N1CCOC1C(Cl)Cl` (stereo not drawn) reads 80 °C.
For `CNC(=O)OCC(C)Nc1ncc(Oc2cc(Cl)c(OC)cc2C(C)C)c(N)n1` (stereo not drawn) the value was 63.5 to 69.4 °C.
`Cc1cc2c(s1)Nc1ccccc1N=C2N1CCN[C@@H](CCc2ccccc2)C1` returned a melting point of 75 to 84 °C.
Consider `CC(C)Sc1cccc(-c2nc(=O)c3ccccc3s2)n1`, for which the melting point lay in the range of 185 to 186 °C.
In the case of `NC(=NCC(F)(F)F)Nc1ccnc(SCCCC(=O)O)n1`, the melting point lay in the range of 234 to 236 °C.
For `C=CCOC(=O)c1ccc(NCCCCCCCCCCCCCCCC)cc1` the value was 81 to 83 °C.
Compound `Cc1ccc(-c2ccc(S(C)(=O)=O)cc2)n1-c1ccc(-c2ccsc2)cc1` returned a melting point of 187 to 188 °C.
For `CC1(C(=O)Nc2ccc(-n3nc(C(F)(F)F)cc3C(F)(F)F)cc2)CC1(Cl)Cl` (stereo not drawn) the value was 143 to 145 °C.
The result for `CCOC(=O)C[C@@H]1C(=O)N(S(=O)(=O)c2ccc(OC)cc2)C=C[C@@H]1c1ccccc1` reads 111 to 113 °C; that for `CC(C)(C)OC(=O)CN1CC(c2ccsc2)SCC(N)C1=O` (stereo not drawn), 115 to 117 °C.
The result for `O=C(O)c1ccc(OCCCON=Cc2cc3ccccc3n2Cc2ccccc2)c(-c2ccc(C(F)(F)F)cc2)c1` reads 196 to 197 °C; that for `O=C(O)Cc1c(C(=O)c2cccc(OCc3ccccc3)c2)[nH]c2cc(Cl)ccc12`, 174 to 177 °C.
In turn, `CCOP(=S)(NCc1cccc(-c2nc(=O)c3ccccc3s2)n1)OCC` yielded a melting point of 132 to 133 °C.
The result for `O=[N+]([O-])c1ccc(N2CCN(Cc3ccccc3)CC2)cc1` reads 115 to 118 °C; that for `COC(=O)CN(C(=O)c1ccc(Cl)cc1)c1ccccc1CCC#N`, 127 to 128 °C; that for `CC(C)OCc1c(S(C)(=O)=O)ccc(Br)c1Cl`, 87 to 91 °C.
`CCOC(=O)c1cc2c(ccc3nc(O)c(O)nc32)s1` gave a melting point of 357 °C.
Turning to `CC(C)Oc1ccc2c(c1)Oc1cc(F)ccc1S2(=O)=O`, the melting point lay in the range of 135 to 136 °C.
Regarding `COc1ccc(C2=NN(C3CCSCC3)C(=O)[C@H]3CC=CC[C@@H]23)cc1Cl` (relative stereo), the melting point was in the range of 170 to 171 °C.
Regarding `O=C(O)CCOCCc1cccc(-c2nc(=O)c3ccccc3s2)n1`, the melting point stood at 237 °C.
For `CN(C)c1cccc(NC(=S)NN=Cc2ccc(-c3ncn(-c4ccc(OC(F)(F)F)cc4)n3)cc2)c1`, the melting point is 192 to 194 °C.
For `CC(=O)Nc1c(N)cc(C(=O)O)c(O)c1Br` the value was 210 to 211 °C; for `COc1ccc([N+](=O)[O-])c(C=C[N+](=O)[O-])c1OCc1ccccc1`, 118 to 119 °C; for `CC#CC(C)(C)NC(=O)C(CC)Oc1ccc2ncc(Br)cc2c1` (stereo not drawn), 109 to 112 °C.
For `CNCC(O)(Cn1cncn1)c1ccc(Cl)cc1Cl` (stereo not drawn) the value was 98 to 101 °C.
Take `CN(C)CCNC(=O)N1CCN(c2ccc(C(N)=O)cc2)CC1`: the melting point fell in the range of 193 to 195 °C.
For the compound `O=CNCCN1CCC(Nc2nc3ccccc3n2Cc2ccc(F)cc2)CC1`, the melting point worked out at 153 °C.
Turning to `CCc1nc(C)cn1CO`, the melting point lay in the range of 83.1 to 86.3 °C.
The result for `Cc1nnc(-c2ccc3occ(-c4cccc(C#N)c4)c3c2)o1` reads 204 to 205 °C; that for `COc1cc(C2CCN(C(=O)CN)CC2)ccc1Nc1ncc2ccc(-c3ccccc3OC)n2n1`, 86 to 99 °C.
In turn, `Cc1cc(N)c([N+](=O)[O-])cc1NCC(O)CO` (stereo not drawn) returned a melting point of 150 °C.
`CCNc1nc(NCC)nc(NCC)n1` came in with a melting point of 74 °C.
Regarding `CCCCCCCCCCCCCCCCCCCC(=O)OCC(O)COC(=O)CCCCCCCCCCCCCCCCCCC`, the melting point was in the range of 83 to 84 °C.
The result for `O=C(CCCCCN1CCN(c2cccc(OC(F)(F)F)c2)CC1)N1Cc2ccccc2C1` reads 89 °C; that for `CCCC(CCC)C(=O)NCC(=O)NCCCCCNC(=O)n1cc(F)c(=O)[nH]c1=O`, 117 to 118 °C.
For `Cc1cc(NN)nc(-c2ccncc2)n1` the value was 150 to 152 °C; for `COC(=O)CCC(=O)c1ccc(N2CCOCC2)cc1`, 120 to 121 °C; for `CC(C)c1nc(CCOCc2ccccc2)n(CCO)c1Sc1cc(Cl)cc(Cl)c1`, 129 to 130 °C.
For `O=[N+]([O-])c1ccc(CF)cc1`, the melting point is 33 to 34 °C.
The compound `CC(C)(CO)NC(=O)c1cccc(-c2cccc3cc(Cc4cc(F)cc(Cl)c4)sc23)c1` returned a melting point of 149 to 150 °C.
`O=C(c1ccc(OCC2CC2)c2oc3ccccc3c12)[NH+]([O-])c1c(Cl)cncc1Cl` (stereo not drawn) returned a melting point of 263 to 265 °C.
The result for `Nc1nc(NC2Cc3ccccc3C2)nc2c1ncn2C1OC(CO)C(O)C1O` (stereo not drawn) reads 129 to 132 °C.
The result for `CCOC(=O)C(COC(=O)COc1ccc(NC(=O)c2ccccc2-c2ccc(C(F)(F)F)cc2)c(C(=O)N(C)C)c1)(C(=O)OCC)c1ccccc1` reads 132 to 138 °C.
Take `O=C(Nc1ccc(Cl)cc1)c1cc(Br)c2cccnc2c1O`: the melting point was 213 to 215 °C.
The result for `COC(=O)C1C=CCn2c(=O)[nH]c(=O)n21` (stereo not drawn) reads 210 to 213 °C; that for `CCNc1nc(NC(C)C)cc(NS(=O)(=O)c2ccc(N)cc2)n1`, 258 to 259 °C; that for `Cc1nc(C)c2c(n1)N(Cc1ccc(-c3ccccc3-c3nnn[nH]3)cc1)C(=O)C2`, 228 to 229 °C.
As to `CCOc1ccc2c(c1)CCc1c(cccc1C(=O)O)S2`, the melting point lay in the range of 165 to 167 °C.
The result for `CC(C)(C)OC(=O)NCC(Cl)c1ccco1` (stereo not drawn) reads 75 to 77 °C; that for `CC(C)N(C[C@H](O)[C@H](Cc1ccccc1)NC(=O)OCc1ccccc1)NC(=O)C(C)(C)C`, 132 to 134 °C.
`O=C(Nc1ccc(F)cc1F)c1cc(-c2ccc(F)cc2F)ccc1O` displayed a melting point of 233 to 234 °C.
For `CCCCn1c(=O)c2c(nc(C)n2S(=O)(=O)c2ccc(C)cc2)n(CCCC)c1=O` the value was 111 to 113 °C.
Take `C=CCOC(=O)CCC(NC(=O)OCC1c2ccccc2-c2ccccc21)C(=O)OCc1ccccc1` (stereo not drawn): the melting point was in the range of 66.2 to 67.1 °C.
On to `NC(=O)N(c1ccc(F)cc1)c1ccc(F)cc1`, for which the melting point lay in the range of 150 to 153 °C.
Take `COc1cc(C)c(C)c2c1CCC2=O`: the melting point was 127 to 128 °C.
`Cc1ccc(C(=S)c2ccc(Cl)cc2)cc1` showed a melting point of 134 °C.
Take `COc1nccc(C)c1NC(=O)c1cccnc1Cl`: the melting point lay in the range of 145 to 146 °C.
`NC1CCc2ccccc2N(CC(=O)O)C1=O` (stereo not drawn) gave a melting point of 147 to 150 °C.
For `O=C1Nc2cccc(F)c2C(=O)N2CC=C[C@@H]12` the value was 238 to 240 °C; for `CCN1CCc2c(c(Br)cc([N+](=O)[O-])c2NC(C)=O)C1`, 168 °C; for `Cc1nc2c3c(c(C(=O)N4CCC4)cc2n1C)CCC1(Cc2ccccc2C1)N3`, 222 to 223 °C.
On to `CC(C)Oc1ccc(CCCCOc2cc(CCC(=O)O)n(C)n2)c(Oc2ncc(C(F)(F)F)cc2Cl)c1`, for which the melting point lay within 156 to 157 °C.
Regarding `CC(C)NS(=O)(=O)c1ccc(N)c(C(=O)N2CCN(C)CC2)c1`, the melting point was in the range of 118 to 122 °C.
In turn, `CC1CC2=CC(=O)CCC2C2C(Cl)CC3(C)C(=O)CCC3C12` (stereo not drawn) showed a melting point of 215 °C.
The result for `CC(=O)c1ccc(CCCCCCOc2ccc(C(=O)c3cccc(C(=O)O)c3)cc2CCC(=O)O)cc1` reads 139 to 141 °C; that for `CC(=O)Oc1ccc(C)cc1[C@H](CCN(C(C)C)C(C)C)c1ccccc1`, 126 to 130 °C; that for `NC(=O)C(F)(I)C(F)(F)F` (stereo not drawn), 75 to 77 °C.
The result for `CC(=O)NCc1ccc(CCl)cc1` reads 116 to 118 °C.
The compound `CCOC(=O)C(=CNc1ccnc(-c2ccccn2)n1)C(=O)OCC` showed a melting point of 162 to 164 °C.
For `Cc1cccc(-c2nc3ccc(Cl)cn3c2-c2ccnc(-c3ccc(CN4CCOCC4)cc3)c2)n1` the value was 157 °C.
`Cc1ccc(-c2nc3ccc(C(C)(C)CN)cc3[nH]2)cc1`: the melting point lay in the range of 45 to 48 °C.
For `COc1cc(OC)c(-c2cccs2)cc1/C=C/C(=O)c1ccc(S(=O)(=O)Nc2ccon2)cc1` the value was 198 to 199 °C.
Turning to `O=C(CCNC(=O)OCc1ccccc1)NCCSC(=O)OCc1ccccc1`, the melting point lay within 121 to 122 °C.
For `COc1cc2c(c(-c3cc(F)ccc3F)c1)OC(CN)C2` (stereo not drawn) the value was 118 to 120 °C.
For `O=C(Nc1cccc2c1C(=O)c1c-2n[nH]c1[C@H]1CC[C@H](C(=O)N2CCNCC2)CC1)NN1CCOCC1` the value was 247 to 248 °C; for `Cc1ccc(-c2ccc3c(c2)C=C(C(=O)Nc2ccc(CNC4CCCCC4)cc2)CCO3)cc1`, 183 to 184 °C; for `CCC(CC)(COc1nn2ncnc2cc1C)CS(N)(=O)=O`, 189 to 192 °C.
For `COc1ccc(-c2nc(N)c(C#N)nc2-c2ccc(=O)n(C(C)C)c2)cc1` the value was 244 °C.
In the case of `CCN(CC)c1ccc([N+](=O)[O-])c(N2CCN(C(C)=O)CC2)n1`, the melting point was 120 °C.
`CC(C(=O)C=Cc1ccccc1)C(=O)C=Cc1ccccc1` (stereo not drawn) registered a melting point of 154 to 157 °C.
Turning to `Cc1c(N2C[C@@H](NC(=O)OC(C)(C)C)C3(CC3)C2)c(F)c(N)c2c(=O)c(C(=O)O)cn(C3CC3)c12`, the melting point was 218 to 219 °C.
In the case of `CCOc1cc(C)cc2cc(C#N)c(=O)oc12`, the melting point came out at 173 °C.
The result for `O=C(N[C@H](Cc1cccc(OC(F)(F)C(F)F)c1)[C@@H](O)c1cccc(F)n1)c1cccc2c1C=CCCC2` (racemic) reads 151 to 152 °C.
For `CCCOc1cc2c(=O)cc(C(=O)O)[nH]c2ccc1=O`, the melting point is over 250 °C.
For the compound `N#Cc1c(-c2cccs2)[nH]c(C(F)(F)F)c1Cl`, the melting point lay in the range of 221 to 223 °C.
